Residues, ends and D or L forms follow the SMILES beside them. *: point of attachment. Cbz = O=C(OCc1ccccc1)*
How the values were obtained:
BeWo cells = experiment: Expression of trophoblast stemness and differentiation genes in BeWo cells treated with EGF and chemical inhibitors; format: cell-based, human; details: 1 mM VPA with 20 μM MG132, 8 h (FIG. 6G)
Procedure: FIGS. 6A to 6I show the regulation of trophoblast stemness and differentiation by antagonism between ΔNp63α and GCM1. […] ITGA6-positive term CTBs were cultured in complete TS medium for 5 days and then maintained in the same medium or incomplete medium (vehicle alone without EGF and chemical inhibitors) for an additional 7 days. Cells were subjected to immunofluorescence microscopy of ΔNp63α, GCM1, and hCGβ. […] BeWo cells were incubated in complete or incomplete TS medium supplemented with the indicated growth factor or chemical inhibitor(s) for 24 h. Cells were harvested for quantitative RT-PCR analysis of the indicated stemness or differentiation genes. […] BeWo cells were treated with the indicated concentration of VPA for 24 hours and then harvested for immunoblotting and quantitative RT-PCR analyses of GCM1, ΔNp63α, and hCGβ. […] BeWo cells were transfected with 4XCSL-luciferase in the presence or absence of 2 mM VPA for 48 hours, followed by luciferase assays. […] 293T cells were transfected with pHA-GCM1 and pNotch1IC-FLAG for 48 hours, followed by coimmunoprecipitation analysis and confocal microscopy using FLAG and HA mAbs and GCM1 Ab. […] EGFP-positive mock or Notch1IC-FLAG-expressing BeWo cells were treated with or without 50 μM FSK for 24 h, followed by immunoblotting and quantitative RT-PCR analyses of GCM1, hCGβ or HTRA4. […] BeWo cells were treated with or without 1 mM VPA in the presence or absence of 20 μM MG132 for 8 h and then subjected to immunoblotting analysis of GCM1 and Notch1IC. […] The EGFP-positive mock or Notch1IC-FLAG-expressing BeWo cells were transfected with the GCM1 promoter reporter plasmid E1bLUCGCM1-2K for 48 h and then subjected to luciferase assays. […] BeWo cells and ITGA6-positive term CTBs were cultured under normoxic or hypoxic conditions for 72 h and 7 days, respectively. Cells were then harvested for quantitative RT-PCR analysis of GCM1, ΔNp63α, HTRA4, hCGβ, and MKI67. Means and standard deviations obtained from three independent experiments are presented.
To study the effect of EGF and chemical inhibitors on trophoblast differentiation, BeWo cells were cultured in the complete TS medium or in the incomplete TS medium with EGF alone or the indicated chemical inhibitor(s) for 24 h. Cells were then harvested for quantitative RT-PCR or immunoblotting analysis of expression of ΔNp63α, eomesodermin (EOMES), E74-like factor 5 (ELF5) or GCM1 and its target genes.

ΔNp63α = ΔNp63α stability in JEG3 cells (FSK with or without MG132); format: cell-based, human; details: 50 μM FSK 24 h in presence of MG132 (FIG. 3F)
Procedure: FIGS. 3A to 3I show reciprocal regulation of GCM1 and ΔNp63α activities in trophoblast differentiation. […] Scramble control, ΔNp63α-knockdown or GCM1-knockdown JEG3 cells were treated with or without 50 μM FSK for 24 h and then harvested for immunoblotting and quantitative RT-PCR analyses of SYN1, hCGβ, HTRA4 proteins or transcripts. Arrowhead denotes a non-specific band recognized by ΔNp63α Ab. […] Scramble control and ΔNp63α knockdown JEG3 cells were treated with or without 50 μM FSK for 48 h, followed by immunofluorescence microscopy with E-cadherin Ab. Syncytial margins are marked with stippled line. Cell fusion was quantified by fusion index. […] Mock and ΔNp63α-FLAG-expressing BeWo cells or scramble control and ΔNp63α-knockdown JEG3 cells were subjected to immunoblotting and quantitative RT-PCR analyses of RACK1 and GATA3 proteins or transcripts. […] Scramble control or ΔNp63α-knockdown JEG3 cells were transfected with pHTRA4-1 Kb with or without pGATA3-FLAG for 48 h, followed by luciferase assays. […] WT and GCM1-KO JEG3 cells were treated with or without 50 μM FSK for 24 hours and then harvested for immunoblotting and quantitative RT-PCR analyses of GCM1, ΔNp63α, hCGβ proteins and transcripts. […] Quantitation of band intensity was performed by densitometry analysis, and the relative ΔNp63α protein level was normalized by β-actin. […]

CC(C)C[C@@H](C=O)NC(=O)[C@H](CC(C)C)NC(=O)[C@H](CC(C)C)NC(=O)OCc1ccccc1 [MG132] (Cbz-Leu-Leu-Leu-aldehyde)
VPA-mediated downregulation of GCM1 expression (BeWo cells): compromised | suppressive effect of FSK on ΔNp63α expression (ΔNp63α): counteracted

— patent US20220155314A1, “TROPHOBLAST STEM CELL, METHODS OF PREPARATION AND USES THEREOF” (Academia Sinica, priority 2020, published 2022)
